{"source": "patent US20120034285A1", "about": "“Mosquito Net with Dinotefuran and PBO for Killing Mosquitoes, Especially Mosquitoes with Pyrethroid Resistance” (priority 2009, published 2012)", "origin": "cited, not measured here", "key": {"Anopheles gambiae": {"test_system": "Anopheles gambiae", "details": "in vivo"}, "Aedes aegypti": {"test_system": "Aedes aegypti", "details": "in vivo"}, "Culex quinquefasciatus": {"test_system": "Culex quinquefasciatus", "details": "in vivo"}, "[1]": {"test_system": "mosquito strain VKPR (also termed VKPER) of the An. gambiae species", "details": "strain with mutation for knockdown-resistance against pyrethroids"}, "mosquitoes": {"test_system": "mosquitoes", "details": "in contrast to pyrethroids; also mentioned in JP 10 139604"}, "cockroaches": {"test_system": "cockroaches", "details": "PBO added as an oxidase inhibitor; Dinotefuran injected into the stomach"}}}
{"compound": "CN/C(=N/CC1CCOC1)N[N+](=O)[O-]", "note": "(stereo not drawn) [Dinotefuran]", "values": [{"measurement": "lethal effect", "setting": "Anopheles gambiae", "result": "lethal effect"}, {"measurement": "lethal effect", "setting": "Aedes aegypti", "result": "lethal effect"}, {"measurement": "lethal effect", "setting": "Culex quinquefasciatus", "result": "lethal effect"}, {"measurement": "lethal effect", "setting": "[1]", "result": "lethal effect"}, {"measurement": "mosquito repellent effect", "setting": "mosquitoes", "result": "does not have a mosquito repellent effect"}, {"measurement": "toxicity on cockroaches", "setting": "cockroaches", "result": "increased toxicity"}]}
